Measured values taken from patent US9248187B2, “Oxadiazole inhibitors of leukotriene production for combination therapy” (Boehringer Ingelheim International GmbH, priority 2012, dated 2016).
Values joined by “and” are separate entries in the source; they are usually repeats but may differ in a detail not shown here. Identical values can stand only once. Values belong to the compound of their own block, whether it stands above or below them.

Key:
[1] = tested on: atherosclerotic plaque in the descending aorta; test: 13 week HF/HC diet rabbit model of atherosclerosis, on top of simvastatin; assay type: in vivo, NZW rabbits; settings: compound 115 2.5 mg/kg and simvastatin 2.5 mg/kg; p=0.05
Description: The objective of the study is to determine if the compounds of Formula I provide additional reduction in atherosclerosis development in high fat/high cholesterol (HF/HC) fed rabbits on top of simvastatin compared to simvastatin alone. Treatment with a statin is considered the standard of care for atherosclerosis clinically. In order to determine if the anti-atherosclerotic effect observed in rabbits is effective on top of statin treatment, rabbits were treated with compound 115 (Table 1) in combination with simvastatin and the effects on atherosclerosis reduction with both control and statin treatment alone were compared. […] The rabbits were fed 125 g of rabbit chow each day and both food consumption and body weights were measured throughout the study period. […] The extent of atherosclerosis development was measured in the descending aorta after the vessels were pinned out on the silicone surface of metal trays and stained with Sunan IV stain. […] The percentage of plaque area of the descending aorta was determined. […] Atherosclerotic lesion formation was quantified by image analysis software using ImagePro Plus software. The mean of thee different sections 100 μm apart was determined. The mean value of each parameter was calculated for each different treatment group and compared to the control value. […]

proteinuria = settings: clinical trial, human glomerulonephritis; cited from earlier work
[2] = target: T1, recombinant human FLAP protein (Homo sapiens, UniProt P20292); test: FLAP binding assay (SPA, displacement of [125I]L-691,831); settings: @1000 nM
T1 construct: made in house; host or cells: Sf9 insect cells (membrane fraction, 100,000 x g pellet)
T1 sequence (P20292 1-161): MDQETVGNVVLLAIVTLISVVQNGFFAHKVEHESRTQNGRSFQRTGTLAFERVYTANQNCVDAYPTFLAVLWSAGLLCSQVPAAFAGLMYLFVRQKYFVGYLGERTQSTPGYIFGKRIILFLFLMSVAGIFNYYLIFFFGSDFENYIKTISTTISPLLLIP
Description: Assessment of Biological Properties 1. Binding Assay
Cell pellets produced from sf9 insect cells expressing recombinant human FLAP protein are resuspended in buffer A [15 mM Tris-HCl (pH 7.5), 2 mM MgCl2, 0.3 mM EDTA, 1 mM PMSF]. The cells are lysed with a Dounce homogenizer and the material is centrifuged at 10,000×g for 10 minutes. The supernatant is then collected and centrifuged at 100,000×g for 60 minutes. To prepare membrane protein for an assay, an aliquot of the 100,000×g pellet is resuspended in 1 ml of buffer A, Dounce homogenized, and finally subjected to polytron mixing (30 seconds). Membrane protein (25 μl, 5 μg) is mixed with WGA SPA beads (Amersham) and stirred for 1 h.

Compound: CN(C)C(=O)Cn1cc(-c2nc([C@@](C)(c3ccc(-c4cnc(N)nc4)cc3)C3CC3)no2)cn1 (single isomer, unassigned) [Example 115]
- further reduction in plaque area compared to simvastatin alone [1]: 32% and 34%

Compound: CC(C)(C)Sc1c(CC(C)(C)C(=O)O)n(Cc2ccc(Cl)cc2)c2ccc(OCc3ccc4ccccc4n3)cc12 [MK-591]
- effect on proteinuria (proteinuria): reduce proteinuria

- FLAP binding % inh [2]: 51% inh@1000 nM
Compound: CC(C)C(C)(c1ccc(-c2cnc(N)nc2)cc1)c1noc(O)n1 (stereo not drawn) [Example 88, 3-{1-[4-(2-Amino-pyrimidin-5-yl)-phenyl]-1,2-dimethyl-propyl}-[1,2,4]oxadiazol-5-ol]
